# Reference: US20230416262A1, “TRPML MODULATORS” (Casma Therapeutics, Inc., priority 2020, published 2023)
# Legend:
# THP-1 cells = test: Lamp1 lysosomal exocytosis assay; type: cell-based; details: Homo sapiens, 55 min, 55 min incubation, top dose 20 μM
# Protocol: For the Lamp1 lysosomal exocytosis assay, a human monocytic suspension cell line (THP-1) was used. Cells in culture should be used between a density of […] and 1.2e6/mL on the day of the assay. For each 96-well assay plate to be used, pellet 11e6 THP-1 cells at 330×g for 5 min in a 50 mL conical tube, aspirate media and resuspend in 22 mLs of RPMI 1640/10% FBS media for a final cell concentration of 5e5/mL. Prior to addition of cells to the assay plate, perform a 7 pt dilution curve using a top dose of compound at 2 mM and use a 3-fold serial dilution, the 8th point is DMSO only. Final top dose of compound in the assay was 20 μM. 2 μL of each serial dilution was transferred to a new 96-well v-bottom assay plate. 198 μL of cells (1e5 total cells/well) was prepared as above in each well of the assay plate and incubated at 37° C./5% CO2/95% RH for 55 min. After the 55 min incubation, cells were pelleted for 5 min at 4 C at 400×g in a tabletop centrifuge. The media was separated from the cell pellets in the plate. The pellets were washed using 200 μL ice cold buffer (PBS Ca^++/Mg^++ containing 2% final BSA and 80 μM final Dynasore). Cells were pelleted again at 400×g-5 min in a 4° C. tabletop centrifuge. Buffer was separated from cells. Each well was suspended in 75 uL Lamp1-PE antibody buffer (PBS Ca^++/Mg^++ containing 2% final BSA with 80 uM final Dynasore and 1:800 final dilution of Lamp 1-PE labeled antibody). After a 45 min antibody incubation on ice, 25 μL of sytox green was added (I drop/mL buffer), and each well was mixed and incubated for an additional 15 min on ice. After the 15 min sytox green incubation, 100 μL of ice-cold buffer (PBS Ca^++/Mg^++ containing 2% final BSA and 80 uM final Dynasore) was added and cells were pelleted for 5 min at 400×g. The buffer was removed and each sample was resuspended in 100 uL of ice-cold buffer (PBS Ca^++/Mg^++ containing 2% final BSA and 80 μM final Dynasore). FACs gating strategy: FACS analyze for sytox green (A488) and Lamp1-PE (DsRed). First gate against FSC-A/SSC-A to find non-fragmented or ‘live’ THP-1 cells. Next gate against FITC-A/FSC-A to omit sytox green positive cells. Then gate for FSC-A/FSC-H to remove any doublet cells. The last gate was a histogram for PE. The statistics for ‘count’ and ‘geometric mean fluorescence intensity’ (gWFI) for PE were repoted on the last gate.
# Compounds having an activity designated as “++++” provided an exocytosis readout of ≤0.50 μM; compounds having an activity designated as “+++” provided an exocytosis readout of 0.51-1.00 μM; compounds having an activity designated as “++” provided an exocytosis readout of 1.01-5.00 μM; and compounds having an activity designated as “+” provided an exocytosis readout of ≥5.01 μM
# TFEB = TFEB nuclear translocation assay; type: cell-based; details: Homo sapiens; HeLa wt or HeLa TRPML1 KO cells, treated for 2 hrs; ratio of nuclear to ring-region TFEB intensity
# In short: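 HeLa wild-type or TRPML1 KO cells treated 2 h with compound at 37 °C, PFA-fixed, immunostained for TFEB (Alexa 488) with Hoechst nuclei. Imaged at ×20, four fields/well. Value is ratio of nuclear to perinuclear-ring TFEB intensity, with nuclei counts.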
Compound,EC50 (THP-1 cells) [µM],EC50 (TFEB) [µM]
"O=C(NCCn1cccn1)N1CCC2(CC1)CN(S(=O)(=O)c1ccc(C(F)F)cc1)c1ccccc12 [Compound I-208, N-(2-(1H-pyrazol-1-yl)ethyl)-1-((4-(difluoromethyl)phenyl)sulfonyl)spiro[indoline-3,4′-piperidine]-1′-carboxamide]",≥ 5.01,–
"O=C(NCc1cccnc1)C1CCC2(CC1)CN(S(=O)(=O)c1ccc(C(F)F)cc1)c1ccccc12 (centres unmarked) [Compound I-232, 1′-((4-(difluoromethyl)phenyl)sulfonyl)-N-(pyridin-3-ylmethyl)spiro[cyclohexane-1,3′-indoline]-4-carboxamide]",≥ 5.01,–
"O=C(NC1CCOCC1)N1CCC2(CC1)CN(S(=O)(=O)c1ccc(C(F)F)cc1)c1ccccc12 [Compound I-205, 1-((4-(difluoromethyl)phenyl)sulfonyl)-N-(tetrahydro-2H-pyran-4-yl)spiro[indoline-3,4′-piperidine]-1′-carboxamide]",≥ 5.01,–
"Cn1cc(CNC(=O)N2CCC3(CC2)CN(S(=O)(=O)c2ccc(C(F)F)cc2)c2ccccc23)cn1 [Compound I-209, 1-((4-(difluoromethyl)phenyl)sulfonyl)-N-((1-methyl-1H-pyrazol-4-yl)methyl)spiro[indoline-3,4′-piperidine]-1′-carboxamide]",≥ 5.01,–
"O=C(NCc1ccccn1)C1CCC2(CC1)CN(S(=O)(=O)c1ccc(C(F)F)cc1)c1ccccc12 (centres unmarked) [Compound I-231, 1′-((4-(difluoromethyl)phenyl)sulfonyl)-N-(pyridin-2-ylmethyl)spiro[cyclohexane-1,3′-indoline]-4-carboxamide]",≥ 5.01,–
"O=C(Cc1ccccc1)N1CCC2(CC1)CN(S(=O)(=O)c1ccc(C(F)F)cc1)c1ccccc12 [Compound I-175, 1-(1-((4-(difluoromethyl)phenyl)sulfonyl)spiro[indoline-3,4′-piperidin]-1′-yl)-2-phenylethan-1-one]",≥ 5.01,–
CCn1cc(COC(=O)N2CCC3(CC2)CN(S(=O)(=O)c2ccc(C(F)F)cc2)c2ccccc23)cn1 [Compound I-171],0.51 to 1,–
"O=C(NCCC(F)(F)F)N1CCC2(CC1)CN(S(=O)(=O)c1ccc(C(F)F)cc1)c1ccccc12 [Compound I-214, 1-((4-(difluoromethyl)phenyl)sulfonyl)-N-(3,3,3-trifluoropropyl)spiro[indoline-3,4′-piperidine]-1′-carboxamide]",≥ 5.01,–
"CN(Cc1ccon1)C(=O)C1CCC2(CC1)CN(S(=O)(=O)c1ccc(C(F)F)cc1)c1ccccc12 (centres unmarked) [Compound I-242, 1′-((4-(difluoromethyl)phenyl)sulfonyl)-N-(isoxazol-3-ylmethyl)-N-methylspiro[cyclohexane-1,3′-indoline]-4-carboxamide]",≥ 5.01,–
"O=C(NC1CCS(=O)(=O)CC1)N1CCC2(CC1)CN(S(=O)(=O)c1ccc(C(F)F)cc1)c1ccccc12 [Compound I-224, 1-((4-(difluoromethyl)phenyl)sulfonyl)-N-(1,1-dioxidotetrahydro-2H-thiopyran-4-yl)spiro[indoline-3,4′-piperidine]-1′-carboxamide]",≥ 5.01,–
"Cn1cc(NC(=O)N2CCC3(CC2)CN(S(=O)(=O)c2ccc(C(F)F)cc2)c2ccccc23)c(=O)n(C)c1=O [Compound I-229, 1-((4-(difluoromethyl)phenyl)sulfonyl)-N-(1,3-dimethyl-2,4-dioxo-1,2,3,4-tetrahydropyrimidin-5-yl)spiro[indoline-3,4′-piperidine]-1′-carboxamide]",≥ 5.01,–
"CN(C)S(=O)(=O)c1ccc(S(=O)(=O)N2CC3(CCN(CC(F)(F)F)CC3)n3nccc32)cc1 [Compound I-144, N,N-dimethyl-4-{[1-(2,2,2-trifluoroethyl)-1′,2′-dihydrospiro[piperidine-4,3′-pyrazolo[1,5-a]imidazol]-1′-yl]sulfonyl}benzene-1-sulfonamide]",–,≥ 10
"CN1CCC2(C1)CN(S(=O)(=O)c1ccc(S(=O)(=O)N(C)C)cc1)c1ccccc12 (centres unmarked) [Compound I-90, N,N-dimethyl-4-({1′-methyl-1,2-dihydrospiro[indole-3,3′-pyrrolidin]-1-yl}sulfonyl)benzene-1-sulfonamide]",–,≥ 10
"CN1CCC2(CC1)CN(S(=O)(=O)Cc1ccccc1)c1ccccc12 [Compound I-82, 1′-methyl-1-phenylmethanesulfonyl-1,2-dihydrospiro[indole-3,4′-piperidine]]",–,≥ 10
"CN(C)S(=O)(=O)c1ccc(S(=O)(=O)N2CC3(CN(Cc4ccccc4)C3)c3ccccc32)cc1 [Compound I-102, 4-({1-benzyl-1′,2′-dihydrospiro[azetidine-3,3′-indol]-1′-yl}sulfonyl)-N,N-dimethylbenzene-1-sulfonamide]",–,2.01 to 8
"CN(C)S(=O)(=O)c1ccc(S(=O)(=O)N2CC3(CCCO3)c3ccccc32)cc1 (centres unmarked) [Compound I-77, 4-({1,2-dihydrospiro[indole-3,2′-oxolan]-1-yl}sulfonyl)-N,N-dimethylbenzene-1-sulfonamide]",–,≤ 2

# Next, values leading:
EC50 (THP-1 cells) [µM],EC50 (TFEB) [µM],Compound
≥ 5.01,–,"CC(C)NC(=O)N1CCC2(CC1)CN(S(=O)(=O)c1ccc(C(F)F)cc1)c1ccccc12 [Compound I-192, 1-((4-(difluoromethyl)phenyl)sulfonyl)-N-isopropylspiro[indoline-3,4′-piperidine]-1′-carboxamide]"
–,2.01 to 8,"Cc1ccc(F)c(CS(=O)(=O)N2CC3(CCCC3)c3ccccc32)c1 [Compound I-47, 1′-[(2-fluoro-5-methylphenyl)methanesulfonyl]-1′,2′-dihydrospiro[cyclopentane-1,3′-indole]]"
–,≥ 10,"O=S(=O)(c1cc(C2OCCO2)cs1)N1CC2(CCCC2)c2ccccc21 [Compound I-21, 1′-{[4-(1,3-dioxolan-2-yl)thiophen-2-yl]sulfonyl}-1′,2′-dihydrospiro[cyclopentane-1,3′-indole]]"
–,≥ 10,"CN1Cc2cc(S(=O)(=O)N3CC4(CCCC4)c4ccccc43)ccc2C1=O [Compound I-55, 5-({1′,2′-dihydrospiro[cyclopentane-1,3′-indol]-1′-yl}sulfonyl)-2-methyl-2,3-dihydro-1H-isoindol-1-one]"
–,8.01 to 9.99,"COC(C)(C)c1cccc(S(=O)(=O)N2CC3(CCCC3)c3ccccc32)c1 [Compound I-60, 1′-[3-(2-methoxypropan-2-yl)benzenesulfonyl]-1′,2′-dihydrospiro[cyclopentane-1,3′-indole]]"
–,8.01 to 9.99,"Cc1cccc(-n2cc(S(=O)(=O)N3CC4(CCCC4)c4ccccc43)cn2)c1 [Compound I-75, 1′-{[1-(3-methylphenyl)-1H-pyrazol-4-yl]sulfonyl}-1′,2′-dihydrospiro[cyclopentane-1,3′-indole]]"
–,≥ 10,"O=S(=O)(Cc1ccc(F)cc1)N1CC2(CCCC2)c2ccccc21 [Compound I-30, 1′-[(4-fluorophenyl)methanesulfonyl]-1′,2′-dihydrospiro[cyclopentane-1,3′-indole]]"
–,≥ 10,"Cc1cccc(CS(=O)(=O)N2CC3(CCCC3)c3ccccc32)c1 [Compound I-16, 1′-[(3-methylphenyl)methanesulfonyl]-1′,2′-dihydrospiro[cyclopentane-1,3′-indole]]"
–,2.01 to 8,"O=S(=O)(Cc1ccc(C(F)F)cc1)N1CC2(CCCC2)c2ccccc21 [Compound I-45, 1′-{[4-(difluoromethyl)phenyl]methanesulfonyl}-1′,2′-dihydrospiro[cyclopentane-1,3′-indole]]"
–,≥ 10,"Cc1cc(S(=O)(=O)N2CC3(CCCC3)c3ccccc32)ccc1F [Compound I-11, 1′-(4-fluoro-3-methylbenzenesulfonyl)-1′,2′-dihydrospiro[cyclopentane-1,3′-indole]]"
